Literature values, collected in patent US20070015728A1, “Metered-dose and safety and compliance packaging for systemic anticancer therapy” (priority 2005, published 2007).

Legend:
OPRT = molecular target: T1, OPRT (Homo sapiens, UniProt P11172); details: neutral pH
T1 sequence (P11172 1-480): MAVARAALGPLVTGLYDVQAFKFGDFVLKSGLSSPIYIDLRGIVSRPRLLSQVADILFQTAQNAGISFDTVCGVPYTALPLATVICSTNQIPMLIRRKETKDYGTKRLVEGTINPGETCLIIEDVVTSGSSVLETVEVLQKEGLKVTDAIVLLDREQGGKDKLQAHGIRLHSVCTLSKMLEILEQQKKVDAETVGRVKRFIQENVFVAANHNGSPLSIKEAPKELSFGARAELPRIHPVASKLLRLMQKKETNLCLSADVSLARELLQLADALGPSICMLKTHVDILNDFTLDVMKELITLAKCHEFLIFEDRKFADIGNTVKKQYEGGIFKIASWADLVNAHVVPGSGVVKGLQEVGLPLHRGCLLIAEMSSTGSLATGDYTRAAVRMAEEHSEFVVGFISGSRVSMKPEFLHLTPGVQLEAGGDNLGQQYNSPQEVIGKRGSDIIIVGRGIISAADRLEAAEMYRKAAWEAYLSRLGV

hand-foot syndrome (HFS) = details: treatment with capecitabine at the FDA-approved dose; XELODA product insert

SMILES: O=C(O)c1cc(=O)[nH]c(=O)[nH]1 [Orotate]
- Km for OPRT, fold lower than 5-FU (OPRT): ~50 fold

SMILES: CCCCCOC(=O)Nc1nc(=O)n([C@@H]2O[C@H](C)[C@@H](O)[C@H]2O)cc1F [Xeloda, Capecitabine]
- grade 3 incidence of HFS (hand-foot syndrome (HFS)): 11-17%
- incidence of HFS irrespective of grade (hand-foot syndrome (HFS)): 54%-67%
